{"source": "patent US10442837B2", "about": "“Scorpion venom heat-resistant synthetic peptide and applications thereof” (priority 2016, dated 2019)", "key": {"[1]": {"test_system": "lithium-pilocarpine epilepsy model rats", "assay": "Lithium-pilocarpine refractory epilepsy chronic model, episodes", "format": "in vivo, SD rats", "conditions": "300 mg/kg, n = 9", "description": "(1) Selection and groups of animals that 180 g healthy male SD rats are selected. Lithium-pilocarpine ip (intraperitoneal administration) 300 mg/kg is used to induce temporal lobe epilepsy episodes. After 15 days of acute epilepsy episode, epilepsy rats are randomly divided into a model group and a model administration group. […] The levels of epilepsy are observed and recorded, and graded according to Racine as the evaluation criteria."}, "[2]": {"test_system": "Kunming mice", "assay": "Acute toxicity test, intraperitoneal injection", "format": "in vivo", "description": "1) Main Observation Indicators:\n(2) Minimal lethal dose (MLD): a dose that causes death in individual tested animals;\n(3) The highest dose of nontoxic reaction (highest nontoxic dose): that is, no observed adverse effect level ([…]), i.e. the highest dose under which no injury is found for animals in a certain period of time;\n(4) Minimum toxic reaction dose: minimum dose of toxic reaction in animals: that is the lowest dose of the toxic reaction in animals whose toxic responses are just caused.\n(1) Tested animals: Kunming mice, half male and half female (healthy adult, weight 19-20 g);\n(2) Subjects: SVHRSP: • a. source: BmK scorpion venom extract purchased from Henan Yichang Xinxin Scorpion Factory (May 28, 2012); • b. Lot No: P160418-CQ455216; • c. Content (or specification): 10 mg/piece; • d. Preservation conditions and preparation methods: −20° C. for long-term preservation, 4° C. for preservation within 7-10 d, and redissolved with millipore water when in use.\n(3) Administration Route: respectively ip (intraperitoneal injection) route (the largest volume commonly used in mice ip route administration is 0.1-1.0 ml/20 gBW) the optimal administration doses to the animals (the doses are different, but the administration capacity is identical) are selected according to the route of administration, and 0.2 ml/20 gBW is adopted for the ip administration routes in this experiment.\nAccording to the approximate lethal dose method, list the possible sequences:\nthe possible maximum tolerance dose and the possible minimum lethal dose of the SVHRSP are estimated according to the acute toxicity test results of the former scorpion venom heat-resistant polypeptide on Kunming mice. Then, a dose sequence table containing several doses is designed according to the 50% incremental method:\nThe possible lethal dose ranges (115.2, 76.8, 51.2, 34.1 mg/kg) are found from the estimated dose sequence list, where each dose is given to one animal, the minimum lethal dose and the maximum tolerated dose are measured, and then the dose between the two is given to an animal. If the animal under this dose doesn't die, the range between this dose and the minimum lethal dose is the approximate lethal dose range; if the animal under this dose dies, the range between this dose and the maximum tolerance dose is the approximate lethal dose range."}, "[3]": {"test_system": "Kunming mice", "assay": "Acute toxicity test, intraperitoneal injection", "format": "in vivo", "conditions": "78.6 mg/kgBW ip"}}, "note": "Peptide text beside a SMILES is read from it.", "data": [{"smiles": "CCCC(CCC)C(=O)[O-].[Na+]", "note": "[sodium valproate]", "values": [{"measurement": "Total Episode Averages superimposed ± Standard Deviation", "setting": "[1]; First day", "result": "2.67 ± 0.85"}, {"measurement": "Total Episode Averages superimposed ± Standard Deviation", "setting": "[1]; First eight days", "result": "15.11 ± 2.73"}, {"measurement": "Total Episode Averages superimposed ± Standard Deviation", "setting": "[1]; First eleven days", "result": "18.89 ± 3.13"}, {"measurement": "Total Episode Averages superimposed ± Standard Deviation", "setting": "[1]; First fifteen days", "result": "23.56 ± 3.79"}, {"measurement": "Total Episode Averages superimposed ± Standard Deviation", "setting": "[1]; First five days", "result": "11.67 ± 2.24"}, {"measurement": "Total Episode Averages superimposed ± Standard Deviation", "setting": "[1]; First four days", "result": "9.56 ± 1.96"}, {"measurement": "Total Episode Averages superimposed ± Standard Deviation", "setting": "[1]; First fourteen days", "result": "22.67 ± 3.56"}, {"measurement": "Total Episode Averages superimposed ± Standard Deviation", "setting": "[1]; First nine days", "result": "16.33 ± 3.05"}, {"measurement": "Total Episode Averages superimposed ± Standard Deviation", "setting": "[1]; First seven days", "result": "13.89 ± 2.45"}, {"measurement": "Total Episode Averages superimposed ± Standard Deviation", "setting": "[1]; First six days", "result": "12.67 ± 2.30"}, {"measurement": "Total Episode Averages superimposed ± Standard Deviation", "setting": "[1]; First ten days", "result": "17.55 ± 2.91"}, {"measurement": "Total Episode Averages superimposed ± Standard Deviation", "setting": "[1]; First thirteen days", "result": "21.78 ± 3.58"}, {"measurement": "Total Episode Averages superimposed ± Standard Deviation", "setting": "[1]; First twelve days", "result": "20.56 ± 3.33"}, {"measurement": "Total Episode Averages superimposed ± Standard Deviation", "setting": "[1]; First two days", "result": "5.56 ± 1.27"}]}, {"smiles": "CC(C)C[C@H](NC(=O)[C@@H](NC(=O)[C@@H](N)CCCCN)C(C)C)C(=O)N[C@@H](CC(N)=O)C(=O)NCC(=O)N1CCC[C@H]1C(=O)N[C@@H](CCC(=O)O)C(=O)N[C@@H](CCC(=O)O)C(=O)N[C@@H](CCC(=O)O)C(=O)N[C@@H](C)C(=O)N[C@@H](C)C(=O)N[C@@H](C)C(=O)N1CCC[C@H]1C(=O)N[C@@H](C)C(=O)N[C@@H](CCC(=O)O)C(=O)O", "note": "[SVHRSP] (H-KVLNGPEEEAAAPAE-OH)", "values": [{"measurement": "Lethal (%)", "setting": "[2]; 115.2 mg/kgBW ip", "result": 0, "unit": "%"}, {"measurement": "Survival (%)", "setting": "[2]; 115.2 mg/kgBW ip", "result": 100, "unit": "%"}, {"measurement": "Lethal (%)", "setting": "[2]; 172.8 mg/kgBW ip", "result": 0, "unit": "%"}, {"measurement": "Survival (%)", "setting": "[2]; 172.8 mg/kgBW ip", "result": 100, "unit": "%"}, {"measurement": "Lethal (%)", "setting": "[2]; 500 mg/kgBW ip", "result": 0, "unit": "%"}, {"measurement": "Survival (%)", "setting": "[2]; 500 mg/kgBW ip", "result": 100, "unit": "%"}, {"measurement": "Lethal (%)", "setting": "[2]; 2000 mg/kgBW ip", "result": 0, "unit": "%"}, {"measurement": "Survival (%)", "setting": "[2]; 2000 mg/kgBW ip", "result": 100, "unit": "%"}, {"measurement": "Toxic Reaction", "setting": "[2]; 2000 mg/kgBW ip", "result": "no any toxic reaction is observed"}, {"measurement": "ratio of medicinal safety and pharmacodynamic activity (2000/0.05)", "setting": "[2]; ip 2000 mg/kg vs 0.05 mg/kg effective dose", "result": "> 40,000 times"}, {"measurement": "maximum non-toxic dose (highest nontoxic dose, no observed adverse effect level)", "setting": "[2]; ip, up to 2000 mg/kg·BW", "result": "has not reached yet"}, {"measurement": "Lethal (%)", "setting": "[3]", "result": 0, "unit": "%"}, {"measurement": "Survival (%)", "setting": "[3]", "result": 100, "unit": "%"}]}]}
